In patent publication US20240109842A1, “ACRYLAMIDE COMPOUNDS” (OTSUKA PHARMACEUTICAL CO., LTD., priority 2019, published 2024):
Like-named read-outs stand apart in the source and are kept apart here.

Tested on: immortalized megakaryocyte cell line
Assay: Test Example 1: platelet production, shake culturing
Assay type: cell-based
Settings: for fold induction at 10 µM: Platelet, 144 h, read-out: Amount of platelet production (vs. Control); for Amount of platelet production (vs. Control): aryl hydrocarbon receptor antagonist Compound A5 0.1 μM added at cell seeding, counted after 6 days
Experimental: The immortalized megakaryocyte cell line obtained according to the method described in WO 2016/204256 was washed twice with D-PBS(−) and then cultured in medium not containing doxycycline to terminate forced expression (cultured under conditions where gene expression is OFF). Shake culturing at 100 rpm was performed in the following medium after the cells were seeded in a 125-mL polycarbonate Erlenmeyer flask (Corning #431143) at 25 mL/flask and a seeding density of 1×10^5 cells/mL. Culturing conditions were 37° C. and 5% CO2. The medium was obtained by adding the following components to IMDM serving as the basal medium (concentrations indicate final concentrations). • FBS 15% • L-Glutamine 2 mM • ITS 100-fold dilution • MTG 450 μM • Ascorbic acid 50 μg/mL • SCF 50 ng/mL • TA-316 0.1 μg/mL • ADAM inhibitor 15 μM • ROCK inhibitor 0.5 μM […] After culturing for 6 days in total, the number of platelets was measured. The measurement method was as follows. The same operation was performed for control. At 6 days after initiation of the culturing under conditions where gene expression was OFF, a part of the culture supernatant was collected, and suspended with the following antibody and Flow-Count Fluorospheres (Beckman Coulter #7547053) to perform staining. • APC-labeled anti-CD41 antibody (BioLegend #303710) • eFluor 450-labeled anti-CD42a antibody (eBioscience #48-0428-42) • PE-labeled anti-CD42b antibody (BioLegend #303906) At 30 minutes after staining, number of platelets (CD41, CD42a and CD42b-positive cells) was counted by using FACSVerse (manufactured by BD Japan) with Flow-Count Fluorospheres. The number of platelets was given as a percentage of the control.

[1] = DMSO added at cell seeding (no AhR antagonist), compound 10 μM added at Day 3, platelets (CD41, CD42a, CD42b-positive) counted after 6 days

SMILES	fold induction at 10 µM	Amount of platelet production (vs. Control) (compound 10 μM added at Day 3)	fold induction at 10 µM [1]
COc1cccc2c(/C=C/C(=O)NCCc3ccccc3-c3ccccc3)c[nH]c12 [Example 2]	1.5 to 6.5	++ (not less than 6.5 times)	
CCSc1ccccc1CCNC(=O)/C=C/c1c[nH]c2c(OC)cccc12 [Example 3]		++ (not less than 6.5 times)	1.5 to 6.5
COc1cccc2c(/C=C/C(=O)NCCc3ccccc3CSC)c[nH]c12 [Example 4]	1.5 to 6.5	++ (not less than 6.5 times)	
CCNc1ccccc1CCNC(=O)/C=C/c1c[nH]c2c(OC)cccc12 [Example 5]		++ (not less than 6.5 times)	1.5 to 6.5
COc1cccc2c(/C=C/C(=O)NCCc3ccccc3OCC3CC3)c[nH]c12 [Example 6]	1.5 to 6.5	++ (not less than 6.5 times)	
COc1cccc2c(/C=C/C(=O)NCCc3ccccc3-c3ccccn3)c[nH]c12 [Example 7]		++ (not less than 6.5 times)	1.5 to 6.5
COC(=O)c1ccccc1CCNC(=O)/C=C/c1c[nH]c2c(OC)cccc12 [Example 8]		++ (not less than 6.5 times)	1.5 to 6.5
CCSc1ccccc1CCNC(=O)/C=C/c1cn(C(C)=O)c2c(OC)cccc12 [Example 9]		++ (not less than 6.5 times)	1.5 to 6.5
COc1cccc2c(/C=C/C(=O)N(C)CCc3ccccc3OCC3CC3)cn(C)c12 [Example 10, (E)-N-[2-[2-(cyclopropylmethoxy)phenyl]ethyl]-3-(7-methoxy-1-methylindol-3-yl)-N-methylprop-2-enamide]		++ (not less than 6.5 times)	1.5 to 6.5
CCOc1ccsc1CCNC(=O)/C=C/c1c[nH]c2c(OC)cccc12 [Example 11]		++ (not less than 6.5 times)	1.5 to 6.5
COc1cccc2c(/C=C/C(=O)NCCc3cc(F)ccc3-c3ccccc3)c[nH]c12 [Example 12]		++ (not less than 6.5 times)	1.5 to 6.5
COc1ccc(-c2ccccc2)c(CCNC(=O)/C=C/c2c[nH]c3c(OC)cccc23)c1 [Example 13]		++ (not less than 6.5 times)	1.5 to 6.5
COc1cccc2c(/C=C/C(=O)NCCc3ccccc3-c3nccs3)c[nH]c12 [Example 14]	1.5 to 6.5	++ (not less than 6.5 times)	
COc1cccc2c(/C=C/C(=O)NCCc3ccccc3-c3ncco3)c[nH]c12 [Example 15]	> 6.5	++ (not less than 6.5 times)	
COc1cccc2c(/C=C/C(=O)NCCc3ccccc3-c3ncccn3)c[nH]c12 [Example 17, (E)-3-(7-methoxy-1H-indol-3-yl)-N-[2-(2-pyrimidin-2-ylphenyl)ethyl]prop-2-enamide]		++ (not less than 6.5 times)	1.5 to 6.5
COc1cccc2c(/C=C/C(=O)NCCc3ccccc3-c3cccs3)c[nH]c12 [Example 19, (E)-3-(7-methoxy-1H-indol-3-yl)-N-[2-(2-thiophene-2-ylphenyl)ethyl]prop-2-enamide]		++ (not less than 6.5 times)	1.5 to 6.5
COc1cccc2c(/C=C/C(=O)NCCc3ccccc3-c3ccsc3)c[nH]c12 [Example 20]	1.5 to 6.5	++ (not less than 6.5 times)	
COc1cccc2c(/C=C/C(=O)NCCc3sccc3-c3ccccc3)c[nH]c12 [Example 21]	1.5 to 6.5	++ (not less than 6.5 times)	
COc1cccc2c(/C=C/C(=O)NCCc3ccsc3-c3ccccc3)c[nH]c12 [Example 22]	1.5 to 6.5	++ (not less than 6.5 times)	
COc1cccc2c(/C=C/C(=O)NCCc3ccccc3-c3ccccc3)cn(C)c12 [Example 23]	1.5 to 6.5	++ (not less than 6.5 times)	
COc1cccc2c(/C=C/C(=O)NCCc3ccccc3-c3ccccc3)cn(C(C)=O)c12 [Example 24, (E)-3-(1-acetyl-7-methoxyindol-3-yl)-N-[2-(2-phenylphenyl)ethyl]prop-2-enamide]		++ (not less than 6.5 times)	1.5 to 6.5

SMILES	fold induction at 10 µM	Amount of platelet production (vs. Control) (compound 10 μM added at Day 3)	fold induction at 10 µM [1]
COc1cccc2c(/C=C/C(=O)NCCc3ccccc3-c3ccccc3)cn(C(=O)c3ccccc3)c12 [Example 25, (E)-3-(1-benzoyl-7-methoxyindol-3-yl)-N-[2-(2-phenylphenyl)ethyl]prop-2-enamide]		++ (not less than 6.5 times)	1.5 to 6.5
COc1cccc2c(/C=C/C(=O)NCCc3ccccc3-c3ccco3)c[nH]c12 [Example 26]		++ (not less than 6.5 times)	1.5 to 6.5
COc1cccc2c(/C=C/C(=O)NCCc3ccccc3-c3ccccc3F)c[nH]c12 [Example 27]		++ (not less than 6.5 times)	1.5 to 6.5
COc1cccc2c(/C=C/C(=O)NCCc3ccccc3-c3ccc(F)cc3)c[nH]c12 [Example 28]		++ (not less than 6.5 times)	1.5 to 6.5
CCOc1ncccc1CCNC(=O)/C=C/c1c[nH]c2c(OC)cccc12 [Example 29, (E)-N-[2-(2-ethoxypyridine-3-yl)ethyl]-3-(7-methoxy-1H-indol-3-yl)prop-2-enamide]		++ (not less than 6.5 times)	1.5 to 6.5
COc1cccc2c(/C=C/C(=O)NCCc3sccc3-c3cccs3)c[nH]c12 [Example 30]		++ (not less than 6.5 times)	1.5 to 6.5
COc1cccc2c(/C=C/C(=O)NCCc3sccc3-c3ccco3)c[nH]c12 [Example 31]		++ (not less than 6.5 times)	1.5 to 6.5
COc1cccc2c(/C=C/C(=O)NCCc3sccc3-c3ccccn3)c[nH]c12 [Example 32]		++ (not less than 6.5 times)	1.5 to 6.5
COc1cccc2c(/C=C/C(=O)NCCc3ccccc3-c3cccnn3)c[nH]c12 [Example 33]		++ (not less than 6.5 times)	1.5 to 6.5
COc1cccc2c(/C=C/C(=O)NCCc3ccccc3-c3ccncn3)c[nH]c12 [Example 34]		++ (not less than 6.5 times)	1.5 to 6.5
COCCOc1ccccc1CCNC(=O)/C=C/c1c[nH]c2c(OC)cccc12 [Example 35]		++ (not less than 6.5 times)	1.5 to 6.5
CCOc1ccccc1CCNC(=O)/C=C/c1c[nH]c2c(OC)nccc12 [Example 36]		++ (not less than 6.5 times)	1.5 to 6.5
COc1cccc2c(/C=C/C(=O)NCCc3ccccc3-n3cccn3)c[nH]c12 [Example 37]		++ (not less than 6.5 times)	1.5 to 6.5
CCOc1ccccc1CCNC(=O)/C=C/n1cnc2c(OC)cccc21 [Example 38]		+ (the amount of platelets production increased by not less than 1.5 times and less than 6.5 times)	1.5 to 6.5
COc1cccc2c1ccn2/C=C/C(=O)NCCc1ccccc1-c1ncccn1 [Example 39]		++ (not less than 6.5 times)	1.5 to 6.5
COc1cccn2c(/C=C/C(=O)NCCc3ccccc3-c3ncccn3)cnc12 [Example 40]		++ (not less than 6.5 times)	1.5 to 6.5
Cc1ccnc2c(/C=C/C(=O)NCCc3ccccc3-c3ncccn3)c[nH]c12 [Example 41]		++ (not less than 6.5 times)	1.5 to 6.5
COc1cccc2c(/C=C/C(=O)NCCc3cccc4ccc(C)nc34)c[nH]c12 [Example 42]		++ (not less than 6.5 times)	1.5 to 6.5
COC(=O)n1cc(/C=C/C(=O)NCCc2ccccc2-c2ccccc2)c2cccc(OC)c21 [Example 43]		++ (not less than 6.5 times)	1.5 to 6.5
COc1cccc2c(/C=C/C(=O)NCCc3occc3-c3ccccc3)c[nH]c12 [Example 44]		++ (not less than 6.5 times)	1.5 to 6.5
